Source: patent publication US12023334B2, “Composition including rilpivirine and method for treating tumors or cancer” (APTORUM THERAPEUTICS LIMITED, priority 2019, dated 2024)

Key:
[1] = test system: PC3 prostate cancer cell lines; settings: animal experiments (Oncogene 24:3923-3931, 2005); cited from earlier work
A-375 melanoma = settings: animal experiments (Oncogene 24:3923-3931, 2005); cited from earlier work
EB2 = assay: EC50 in cancer cell line, rilpivirine alone; type: cell-based; settings: Homo sapiens, Burkitt's lymphoma
JVM-2 = assay: EC50 in cancer cell line, rilpivirine alone; type: cell-based; settings: Homo sapiens, Mantle cell lymphoma
SU-DHL-8 = assay: EC50 in cancer cell line, rilpivirine alone; type: cell-based; settings: Homo sapiens, Large cell lymphoma
Caki-2 = assay: EC50 in cancer cell line, rilpivirine alone; type: cell-based; settings: Homo sapiens, Kidney
BxPC-3 = assay: EC50 in cancer cell line, rilpivirine alone; type: cell-based; settings: Homo sapiens, Pancreas
MOLT-4 = assay: EC50 in cancer cell line, rilpivirine alone; type: cell-based; settings: Homo sapiens, Acute lymphoblastic leukemia
HuTu80 = assay: EC50 in cancer cell line, rilpivirine alone; type: cell-based; settings: Homo sapiens, Duodenum
EM-2 = assay: EC50 in cancer cell line, rilpivirine alone; type: cell-based; settings: Homo sapiens, Chronic myelogenous leukemia
U-87 MG = assay: EC50 in cancer cell line, rilpivirine alone; type: cell-based; settings: Homo sapiens, Glioblastoma/malignant glioma
pancreatic cancer cells = settings: in vitro (PloS ONE 10(6):e0130277, 2015); cited from earlier work
MOLT-16 = assay: EC50 in cancer cell line, rilpivirine alone; type: cell-based; settings: Homo sapiens, Acute lymphoblastic leukemia
[2] = Xenograft mouse model, body weight and signs of overt toxicity; type: in vivo, female BALB/c nude mice; settings: rilpivirine 400 mg/kg once daily for 21 consecutive days, oral
Protocol: (§1) This study employed female BALB/c nude mice, aged 4-5 weeks, obtained from BioLasco Taiwan (under Charles River Laboratories Licensee). The animals were housed in individually ventilated cages (IVC, 36 Mini Isolator system). The allocation for 4 animals was 27×20×14 in cm. All the animals were maintained in a hygienic environment under controlled temperature (20-24° C.) and humidity (30%-70%) with 12-hour light/dark cycle. Free access to standard lab diet [MFG (Oriental Yeast Co., Ltd., Japan)] and autoclaved tap water were granted. All aspects of this work including housing, experimentation, and animal disposal were performed in general accordance with the “Guide for the Care and Use of Laboratory Animals: Eighth Edition” (National Academies Press, Washington, D.C., 2011) in our AAALAC-accredited laboratory animal facility. In addition, the animal care and use protocol was reviewed and approved by the IACUC at Pharmacology Discovery Services, Taiwan.
The IMR-32 tumor cell line was purchased from American Type Culture Collection (ATCC CCL-127, neuroblastoma) and cultured in Pharmacology Discovery Services, Taiwan. The cells were cultured in MEM medium containing 10% fetal bovine serum (FBS), 1 mM sodium pyruvate and 1 mM NEAA at 37° C. in 5% CO2 incubator. Female BALB/c nude mice were used as described in the preceding section. Viable IMR-32 cells (ATCC CCL-127) were subcutaneously (SC) implanted (1×10^7 cells in 1:1 matrigel/complete media mixture at 0.2 mL/mouse) into the right flank of female BALB/c nude mice. Forty-one days post tumor cell implantation (group mean tumor volumes ranging 128 mm^3-130 mm^3), all the animals were randomized into sixteen study groups, each containing eight animals, and dose administrations were initiated (denoted as Day 1). All the experiments were conducted using protocols and conditions approved by the institutional animal care and use committee. The tumor volume, body weight, mortality, and signs of overt toxicity were monitored and recorded twice weekly for 28 days.

T47D = assay: EC50 in cancer cell line, rilpivirine alone; type: cell-based; settings: Homo sapiens, Breast
647-V = assay: EC50 in cancer cell line, rilpivirine alone; type: cell-based; settings: Homo sapiens, Bladder
RKO-AS45-1 = assay: EC50 in cancer cell line, rilpivirine alone; type: cell-based; settings: RKOAS451, Colon
HMCB = assay: EC50 in cancer cell line, rilpivirine alone; type: cell-based; settings: Homo sapiens, Melanoma
SK-N-BE(2) cell line = assay: MTT cell proliferation assay, SK-N-BE(2); type: cell-based
Protocol: (§2) In the present invention, the IC50 concentrations required to inhibit the activity of IMR-32 cell line and other neuroblastoma cell lines were determined for rilpivirine and other chemotherapeutic agents, and presented on the two-coordinate plot with x- and y-axes, forming the two points (IC50, rilpivirine, 0) and (0, IC50, chemotherapeutic agents). […] Moreover, the concentration or ratios of rilpivirine in combination with chemotherapeutic agents which provide the same inhibition effect are denoted as point (Crilpivirine, 50, Cchemotherapeutic agents, 50) in the same plot.
(§3) The combination index provides a quantitative measurement of the drug-drug interaction at the given effect level. The combination index (CI) is calculated by following equation: […]
(§4) The IMR-32, SK-N-SH, SH-SY5Y and SK-N-BE(2) tumor cell lines were purchased from American Type Culture Collection (ATCC, Manassas, VA). […] The cells were incubated for 72 hours and then cell proliferation was measured by 3-(4,5-dimethyl-2-thiazolyl)-2,5-diphenyl-2H-tetrazolium bromide (MTT) colorimetric assays (Sigma-Aldrich, Inc., St. Louis, MO). […] Absorbance of each well was measured with a spectrophotometer (uQuant SpectroMAX Gemini Dual-scanning microplate spectro, Bio-tek Instrument Inc.) at 550 nm. Growth inhibition was expressed as the ratio of the mean absorbance of treated cells relative to that of the control.

CHP-212 = assay: EC50 in cancer cell line, rilpivirine alone; type: cell-based; settings: Homo sapiens, Neuroblastoma
SH-SY5Y cell line = assay: MTT cell proliferation assay, SH-SY5Y; type: cell-based
Protocol: as §2, §3, §4

MES-SA = assay: EC50 in cancer cell line, rilpivirine alone; type: cell-based; settings: Homo sapiens, Uterine sarcoma
PANC-1 = assay: EC50 in cancer cell line, rilpivirine alone; type: cell-based; settings: Homo sapiens, Pancreas
IMR-32 cell line = assay: MTT cell proliferation assay, IMR-32; type: cell-based, human
Protocol: as §2, §3, §4

TUR = assay: EC50 in cancer cell line, rilpivirine alone; type: cell-based; settings: Histiocytic lymphoma
GA-10 = assay: EC50 in cancer cell line, rilpivirine alone; type: cell-based; settings: Homo sapiens, Burkitt's lymphoma
MV-4-11 = assay: EC50 in cancer cell line, rilpivirine alone; type: cell-based; settings: Homo sapiens, MV4-11, Biphenotypic B myelomonocytic leukemia
[3] = test system: cleaved poly (ADP-ribose) polymerase (PARP) and phosphor-histone H2A.X (p-H2A.X); assay: Expression of cleaved PARP and p-H2A.X in SK-N-BE(2); type: cell-based; settings: increasing rilpivirine 0.12, 0.37, 1.11, 3.3, and 10 μM
PC-3 = assay: EC50 in cancer cell line, rilpivirine alone; type: cell-based; settings: Homo sapiens, Prostate
D283Med = assay: EC50 in cancer cell line, rilpivirine alone; type: cell-based; settings: Homo sapiens, D283 Med, Medulloblastoma
SK-N-SH cell line = assay: MTT cell proliferation assay, SK-N-SH; type: cell-based
Protocol: as §2, §3, §4

BV-173 = assay: EC50 in cancer cell line, rilpivirine alone; type: cell-based; settings: Homo sapiens, B-cell precursor leukemia (CML)
[4] = test system: cleaved poly (ADP-ribose) polymerase (PARP) and phosphor-histone H2A.X (p-H2A.X); assay: Expression of cleaved PARP and p-H2A.X in SK-N-SH; type: cell-based; settings: increasing rilpivirine 0.12, 0.37, 1.11, 3.3, and 10 μM
SK-N-AS = assay: EC50 in cancer cell line, rilpivirine alone; type: cell-based; settings: Homo sapiens, Neuroblastoma
KU812 = assay: EC50 in cancer cell line, rilpivirine alone; type: cell-based; settings: Homo sapiens, Chronic myelogenous leukemia
DOHH-2 = assay: EC50 in cancer cell line, rilpivirine alone; type: cell-based; settings: Homo sapiens, B-cell lymphoma
TF-1 = assay: EC50 in cancer cell line, rilpivirine alone; type: cell-based; settings: Homo sapiens, Erythroleukemia
Daudi = assay: EC50 in cancer cell line, rilpivirine alone; type: cell-based; settings: Homo sapiens, Burkitt's lymphoma
DMS273 = assay: EC50 in cancer cell line, rilpivirine alone; type: cell-based; settings: Homo sapiens, DMS-273, SCLC
SU-DHL-4 = assay: EC50 in cancer cell line, rilpivirine alone; type: cell-based; settings: Homo sapiens, B-cell non-Hodgkin lymphoma
ST486 = assay: EC50 in cancer cell line, rilpivirine alone; type: cell-based; settings: Homo sapiens, Burkitt's lymphoma
CEM-C2 = assay: EC50 in cancer cell line, rilpivirine alone; type: cell-based; settings: Homo sapiens, Acute lymphoblastic leukemia
COR-L105 = assay: EC50 in cancer cell line, rilpivirine alone; type: cell-based; settings: Homo sapiens, NSCLC
Thp1 = assay: EC50 in cancer cell line, rilpivirine alone; type: cell-based; settings: Homo sapiens, THP-1, Acute monocytic leukemia
IM-9 = assay: EC50 in cancer cell line, rilpivirine alone; type: cell-based; settings: Homo sapiens, Multiple myeloma
SNU-16 = assay: EC50 in cancer cell line, rilpivirine alone; type: cell-based; settings: Homo sapiens, Stomach
IMR-32 tumor = assay: Xenograft mouse model of neuroblastoma, tumor volume; type: in vivo, female BALB/c nude mice; settings: rilpivirine 400 mg/kg once daily for 21 consecutive days, oral; p<0.05
Protocol: as §1
The IMR-32 tumor cell line was purchased from American Type Culture Collection (ATCC CCL-127, neuroblastoma) and cultured in Pharmacology Discovery Services, Taiwan. The cells were cultured in MEM medium containing 10% fetal bovine serum (FBS), 1 mM sodium pyruvate and 1 mM NEAA at 37° C. in 5% CO2 incubator. […] The tumor volume, body weight, mortality, and signs of overt toxicity were monitored and recorded twice weekly for 28 days. […]

U-937 = assay: EC50 in cancer cell line, rilpivirine alone; type: cell-based; settings: Homo sapiens, Histiocytic lymphoma
[5] = test system: cleaved poly (ADP-ribose) polymerase (PARP) and phosphor-histone H2A.X (p-H2A.X); assay: Expression of cleaved PARP and p-H2A.X in SH-SY5Y; type: cell-based; settings: increasing rilpivirine 0.12, 0.37, 1.11, 3.3, and 10 μM
HUH-6 = assay: EC50 in cancer cell line, rilpivirine alone; type: cell-based; settings: Homo sapiens, Liver
SR = assay: EC50 in cancer cell line, rilpivirine alone; type: cell-based; settings: Homo sapiens, Large cell immunoblastic lymphoma
Jurkat = assay: EC50 in cancer cell line, rilpivirine alone; type: cell-based; settings: Homo sapiens, Acute lymphoblastic leukemia
J-RT3-T3-5 = assay: EC50 in cancer cell line, rilpivirine alone; type: cell-based; settings: Homo sapiens, Acute T-cell leukemia
U87 glioblastoma cells = settings: Journal of Cancer 9(1):117-128, 2018; cited from earlier work
[6] = Homo sapiens, rilpivirine alone, 72 hours

SMILES: Cc1ccnc2c1NC(=O)c1cccnc1N2C1CC1 [nevirapine]
- tumorigenic growth of PC3 prostate cancer cell lines [1]: antagonize tumorigenic growth
- tumorigenic growth of A-375 melanoma (A-375 melanoma): antagonize tumorigenic growth

SMILES: Cc1cc(/C=C/C#N)cc(C)c1Nc1ccnc(Nc2ccc(C#N)cc2)n1 [rilpivirine]
- EC50 (EB2): 4.81 µM
- EC50 (JVM-2): 2.74 µM
- EC50 (SU-DHL-8): 4.19 µM
- EC50 (Caki-2): 4.05 µM
- EC50 (BxPC-3): 11.3 µM
- EC50 (MOLT-4): 3.75 µM
- EC50 (HuTu80): 3.59 µM
- EC50 (EM-2): 3.96 µM
- EC50 (U-87 MG): 14.4 µM
- toxic potential against pancreatic cancer cells (pancreatic cancer cells): high toxic potential
- EC50 (MOLT-16): 3.38 µM
- body weight loss [2]: not associated with body weight loss
- overt toxicities [2]: no overt toxicities were observed
- tolerability [2]: well tolerated
- EC50 (T47D): 3.23 µM
- EC50 (647-V): 12.3 µM
- EC50 (RKO-AS45-1): 4.4 µM
- EC50 (HMCB): 3.49 µM
- growth of neuroblastoma cell line under rilpivirine treatment (SK-N-BE(2) cell line): successfully inhibited
- IC50 (SK-N-BE(2) cell line; Homo sapiens, SKNBE2, rilpivirine alone, 72 hours): 3.37 µM
- EC50 (CHP-212): 3.26 µM
- growth of neuroblastoma cell line under rilpivirine treatment (SH-SY5Y cell line): successfully inhibited
- IC50 (SH-SY5Y cell line; [6]): 3.12 µM
- EC50 (MES-SA): 4.91 µM
- EC50 (PANC-1): 8.27 µM
- growth of neuroblastoma cell line IMR-32 (IMR-32 cell line; 5 μM rilpivirine treatment for 24 hours): significantly inhibited
- IC50 (IMR-32 cell line; Homo sapiens, IMR-32, rilpivirine alone, 72 hours): 2.97 µM
- EC50 (TUR): 2.08 µM
- EC50 (GA-10): 3.7 µM
- EC50 (MV-4-11): 4.88 µM
- expression of cleaved PARP and p-H2A.X [3]: increased gradually
- EC50 (PC-3): 6.23 µM
- EC50 (D283Med): 3.54 µM
- growth of neuroblastoma cell line under rilpivirine treatment (SK-N-SH cell line): successfully inhibited
- IC50 (SK-N-SH cell line; [6]): 2.75 µM
- EC50 (BV-173): 3.69 µM
- expression of cleaved PARP and p-H2A.X [4]: increased gradually
- EC50 (SK-N-AS): 4.84 µM
- EC50 (KU812): 4.09 µM
- EC50 (DOHH-2): 4.45 µM
- EC50 (TF-1): 3.76 µM
- EC50 (Daudi): 4.01 µM
- EC50 (DMS273): 4.96 µM
- EC50 (SU-DHL-4): 4.29 µM
- EC50 (ST486): 3.76 µM
- EC50 (CEM-C2): 4.04 µM
- EC50 (COR-L105): 3.11 µM
- EC50 (Thp1): 4.29 µM
- EC50 (IM-9): 4.13 µM
- EC50 (SNU-16): 4.23 µM
- tumor growth compared to negative control group (vehicle) (IMR-32 tumor): significantly inhibited
- EC50 (U-937): 3.37 µM
- expression of cleaved PARP and p-H2A.X [5]: increased gradually
- EC50 (HUH-6): 2.41 µM
- EC50 (SR): 3.78 µM
- EC50 (Jurkat): 3.68 µM
- EC50 (J-RT3-T3-5): 4.04 µM

SMILES: Cc1cc(C)c(Nc2ccnc(Nc3ccc(C#N)cc3)n2)c(C)c1 [Dapivirine]
- tumor growth of U87 glioblastoma cells (U87 glioblastoma cells): inhibit tumor growth

SMILES: O=C1Nc2ccc(Cl)cc2[C@@](C#CC2CC2)(C(F)(F)F)O1 [efavirenz]
- tumorigenic growth of PC3 prostate cancer cell lines [1]: antagonize tumorigenic growth
- toxic potential against pancreatic cancer cells (pancreatic cancer cells): high toxic potential
- tumorigenic growth of A-375 melanoma (A-375 melanoma): antagonize tumorigenic growth
